Laboratory results from patent US11383009B2, “Rapamycin 40-O-cyclic hydrocarbon esters, compositions and methods” (BIOTRONIK AG, priority 2012, dated 2022).
Where “and” joins values, the source holds several entries; their conditions need not be identical. Identical values can stand only once. Blank lines part the entries; values can stand above or below the compound they belong to.

Assays:
[1] = Stent coating condition after stent expansion (ductility); settings: coating of 1:1 weight ratio drug and polylactic acid; compared with rapamycin coating
Text: In accordance with one of the unexpected advantages of the present invention, it has been discovered that a coating formed with the compounds of the present invention is substantially more ductile, i.e., less prone to cracking, than a coating formed with rapamycin. This property can be seen from the photomicrographs of FIGS. 1 and 2, which show the condition of a stent coating after stent expansion in a stent formed of a 1:1 weight ratio of […] and polylactic acid (FIG. 1) and a coating formed of a 1:1 weight ratio of Compound 1 (Table I) and polylactic acid (FIG. 2). […] An important advantage of the drug compound in this setting is that a coating with a high drug:polymer ratio can be prepared without the need for addition of a separate plasticizer, which may cause toxic responses, affect drug elution rates, and extend development times and increase production costs.

[2] = Drug elution and total recovery from polymer-coated stents; format: physicochemical; settings: single stent, 1:1 drug/polylactic acid coating; 25% ethanol in water, 37° C., 168 hours elution plus exhaustive acetonitrile extraction
Experimental: This section examines the stability of the compounds of the invention when released from a reservoir over a several-day to several-week period. In one study, a series of stents were prepared with a suitable coating of drug/polymer mixture. The stents were fabricated from laser cut and electropolished 316L Stainless Steel and measured 16 millimeters in length. The coating mixture contained an equal weight of polylactic acid and each of the compounds to be evaluated. The mixture components were weighed, combined in a glass vial with acetone at room temperature and then vortexed until all of the materials dissolved. Each individual stent was weighed using a Mettler model XP105 balance. […]
After visual inspection the stents were mounted onto 3.0 mm×16 mm angioplasty balloons using a hand crimper. […] The appropriate pressure for inflation was determined using the inflation table applicable to the angioplasty catheter. […]
For elution comparison each stent was transferred into its respective 7-mL borosilicate vial and 4.0 mL 25% ethanol in water (w/w) elution medium was added. […] The amount of drug eluted during each time interval was determined by HPLC. After a cumulative incubation of 168 hours, the remaining drug in each stent was determined by exhaustive extraction by adding 4.0 mL acetonitrile to each stent for 20 minutes at ambient temperature followed by vortexing for 10 seconds. […]

[3] = Drug stability in rabbit aqueous humour at 37° C.; format: in vitro ADME
Text: (§1) The assay comparison between sirolimus and the compounds of the present invention (denoted as CRC) is further described at Table XI.

[4] = tested on: vascular restenosis, porcine coronary arteries; experiment: Trial B: coated magnesium stents implanted in porcine coronary arteries, 28 days; settings: Group 1 (n = 5 stents), 223 μg drug in polylactic acid on parylene C coated magnesium stent; 28 days post-implant
Text: Coronary artery measurements were made from angiographic images before stent deployment, immediately after deployment, and twenty-eight days after deployment to determine the effectiveness of the coated stent in reducing restenosis. Determination of angiographic late loss was made by subtraction of the minimum vessel lumen diameter of the stented vessel at 28 days post-implant from the minimal vessel lumen diameter at the time of implant. Determination of percent diameter stenosis was made at 28 days post-implant by the calculation of 100(1-MLD/refdia.) where MLD represents the minimum vessel lumen diameter at 28 days post-implant and refdia. is the average diameter of the vessel sections adjacent to the stented vessel.

[5] = Drug stability in rabbit vitreous humour at 37° C.; format: in vitro ADME, New Zealand White rabbit
Text: as §1

[6] = 72 hours, drug dose 45.2 μg (SIR 1), 51.4 μg (CRC 1)
[7] = 72 hours, drug dose 48.4 μg (SIR 1), 52.2 μg (CRC 1)
[8] = […], drug dose 47.8 μg (SIR 2), 54.0 μg (CRC 2)

condition of stent coating after stent expansion (ductility) [1]: more ductile
SMILES: COC1CC2CCC(C)C(O)(O2)C(=O)C(=O)N2CCCCC2C(=O)OC(C(C)CC2CCC(OC(=O)C3CC3)C(OC)C2)CC(=O)C(C)C=C(C)C(O)C(OC)C(=O)C(C)CC(C)C=CC=CC=C1C (stereo not shown) [Compound 1, Rapamycin 40-O-Cyclic Hydrocarbon Ester with Cyclopropanecarbonyl Chloride]

SMILES: CO[C@H]1C[C@@H]2CC[C@@H](C)[C@@](O)(O2)C(=O)C(=O)N2CCCC[C@H]2C(=O)O[C@H]([C@H](C)C[C@@H]2CC[C@@H](O)[C@H](OC)C2)CC(=O)[C@H](C)/C=C(\C)[C@@H](O)[C@@H](OC)C(=O)[C@H](C)C[C@H](C)/C=C/C=C/C=C/1C [Rapamycin]
Total Drug (μg) Recovered [2]: 109.1 µg and 84.6 µg and 103.4 µg and 125.2 µg and 71.6 µg
Degradants (HPLC UV Area Percent) ([3]; 0 hrs): 2%
Intact drug (HPLC UV Area Percent) ([3]; 0 hrs): 98%
Degradants (HPLC UV Area Percent) ([3]; 1 hrs): 4%
Intact drug (HPLC UV Area Percent) ([3]; 1 hrs): 96%
Degradants (HPLC UV Area Percent) ([3]; 4 hrs): 18%
Intact drug (HPLC UV Area Percent) ([3]; 4 hrs): 82%
Degradants (HPLC UV Area Percent) ([3]; 24 hrs): 86%
Intact drug (HPLC UV Area Percent) ([3]; 24 hrs): 14%
Degradants (HPLC UV Area Percent) ([3]; 48 hrs): 96%
Intact drug (HPLC UV Area Percent) ([3]; 48 hrs): 4%
% Remaining (72 Hours) [3, 6]: 0%
Drug Remaining 72 Hours [3, 6]: 0.0 µg
Degradants (HPLC UV Area Percent) ([3]; 72 hrs): 100%
Intact drug (HPLC UV Area Percent) ([3]; 72 hrs): 0%
Angiographic Late Loss [4]: 0.42 mm
Diameter Stenosis [4]: 13.1%
Degradants (HPLC UV Area Percent) ([5]; 0 hrs): 3%
Intact drug (HPLC UV Area Percent) ([5]; 0 hrs): 97%
Degradants (HPLC UV Area Percent) ([5]; 1 hrs): 3%
Intact drug (HPLC UV Area Percent) ([5]; 1 hrs): 97%
Degradants (HPLC UV Area Percent) ([5]; 4 hrs): 7%
Intact drug (HPLC UV Area Percent) ([5]; 4 hrs): 93%
Degradants (HPLC UV Area Percent) ([5]; 24 hrs): 43%
Intact drug (HPLC UV Area Percent) ([5]; 24 hrs): 57%
Degradants (HPLC UV Area Percent) ([5]; 48 hrs): 71%
Intact drug (HPLC UV Area Percent) ([5]; 48 hrs): 29%
% Remaining (72 Hours) [5, 7]: 8%
Drug Remaining 72 Hours [5, 7]: 4.0 µg
Degradants (HPLC UV Area Percent) ([5]; 72 hrs): 84%
Intact drug (HPLC UV Area Percent) ([5]; 72 hrs): 16%
% Remaining (192 Hours) [5, 8]: 1%
Drug Remaining 192 Hours [5, 8]: 0.6 µg
